The values that follow come from ChEMBL document CHEMBL1132839, “Substituted 3-(2-benzoxazyl)-benzimidazol-2-(1H)-ones: a new class of GABA(A) brain receptor ligands” (Bioorg Med Chem Lett, 2000).

The target of one experiment is GABA-A receptor; anion channel. Briefly: Binding affinity against GABA-A benzodiazepine receptor. The experiment is classed as protein-complex assay.
Regarding `O=C1NC2CCCCCC2N1c1nc2ccc(F)c(F)c2o1` (stereo not given), the inhibition constant (Ki) was determined as 0.003 µM. Still for that read-out and setting: the same measure for `O=C1NC2CCCCCC2N1c1nc2ccccc2o1` (stereo not given): 0.008 µM; for `Oc1nc2ccccc2n1-c1nc2ccc(F)c(F)c2o1`: 0.02 µM. Still for that read-out and setting: the same measure for `Oc1nc2c(n1-c1nc3ccc(F)c(F)c3o1)CCCC2`: 0.021 µM; for `Oc1nc2c(n1-c1nc3cccc(F)c3o1)CCCC2`: 0.052 µM. The same measure, in the same setting: the value for `O=C1NC2CCCCCC2N1c1nc2ncccc2o1` (stereo not given) was 0.137 µM; that for `Oc1nc2cc(F)ccc2n1-c1nc2cccc(F)c2o1` was 0.014 µM; that for `Cn1c(=O)n(-c2nc3ccccc3o2)c2ccccc21` was more than 10 µM. As to `Oc1nc2cc(F)ccc2n1-c1nc2ccc(F)cc2o1`, affinity was put at a Ki of 0.025 µM. `Oc1nc2c(n1-c1nc3ccc(F)cc3o1)CCCC2` returned an inhibitory constant (Ki) of 0.047 µM. The compound `O=C1NC2CCCCC2N1c1nc2ncccc2o1` (stereo not given) came in with an inhibitory constant (Ki) of more than 1 µM. On the same count and under the same terms, the same measure for `Oc1nc2cc(F)ccc2n1-c1nc2ccccc2o1`: 0.032 µM. The same measure, in the same setting: the value for `Oc1nc2ccc(F)cc2n1-c1nc2ccccc2o1` was 0.058 µM; that for `O=C1NC2CCCCCC2N1c1nc2cc(F)c(F)cc2o1` (stereo not given) was 0.087 µM. Compound `O=C1NC2CCCCCC2N1c1nc2c(F)cc(F)cc2o1` (stereo not given) had an inhibition constant Ki of 0.065 µM. Still for that read-out and setting: the same measure for `Oc1nc2ccccc2n1-c1nc2ccccc2s1`: more than 10 µM; for `O=C1NC2CCCCCC2N1c1nc2cc(F)cc(F)c2o1` (stereo not given): 0.007 µM. As for `O=C1NC2CCCCCC2N1c1nc2cccc(F)c2o1` (stereo not given), the Ki came out at 0.005 µM. `Oc1nc2c(n1-c1nc3cc(F)ccc3o1)CCCC2` showed an inhibition constant (Ki) of 0.026 µM. Same read-out and setting: the same measure for `Oc1nc2ccccc2c2nc(-c3ccccc3)nn12`: 0.004 µM. On the same count and under the same terms, the same measure for `Cc1ccc2oc(N3C(=O)NC4CCCCCC43)nc2c1` (stereo not given): 0.015 µM. Same read-out and setting: the value for `Oc1nc2cccnc2n1-c1nc2ccccc2o1` was 0.723 µM; that for `Oc1nc2c(n1-c1nc3ccccc3o1)CCCC2` was 0.056 µM; that for `COc1ccc2oc(N3C(=O)NC4CCCCCC43)nc2c1` (stereo not given) was 0.025 µM. Consider `Oc1nc2ccc(F)cc2n1-c1nc2cccc(F)c2o1`, for which the inhibition constant (Ki) turned out to be 0.015 µM. The same measure, in the same setting: the value for `Cc1ccc2nc(-n3c(O)nc4ccccc43)oc2c1` was 0.303 µM; that for `Oc1nc2ccccc2n1-c1nc2ncccc2o1` was 0.044 µM. Still for that read-out and setting: the value for `Cc1ccc2nc(N3C(=O)NC4CCCCCC43)oc2c1` (stereo not given) was 0.158 µM. Still for that read-out and setting: the value for `O=C1NC2CCCCCC2N1c1nc2ccc(F)cc2o1` (stereo not given) was 0.005 µM; that for `O=C1NC2CCCCCC2N1c1nc2cc(F)ccc2o1` (stereo not given) was 0.005 µM.

Compound `COc1ccc2oc(-n3c(O)nc4c3CCCC4)nc2c1` had a Ki of 0.081 µM. `COc1ccc2nc(-n3c(O)nc4c3CCCC4)oc2c1` gave a Ki of 0.239 µM. Regarding `Oc1nc2ccccc2n1-c1nc2cc(F)ccc2o1`, the affinity, expressed as Ki, was 0.162 µM. The Ki values of the last two compounds are within 1.5-fold of each other. For `COc1ccc2nc(-n3c(O)nc4ccccc43)oc2c1`, the affinity corresponds to a Ki of 0.61 µM. This Ki lies about 3.8-fold higher than the previous one. The same measure, in the same setting: the value for `Oc1nc2ccccc2n1-c1nc2ccccc2o1` was 0.054 µM; that for `COc1ccc2nc(N3C(=O)NC4CCCCCC43)oc2c1` (stereo not given) was 0.254 µM.

As to `COc1ccc2oc(-n3c(O)nc4ccccc43)nc2c1`, affinity was put at a Ki of 0.091 µM. The same measure, in the same setting: the same measure for `Oc1nc2ccccc2n1-c1nc2ccc(F)cc2o1`: 0.089 µM.

`Oc1nc2ccccc2n1-c1nc2cccc(F)c2o1` displayed an inhibition constant Ki of 0.039 µM.

Another experiment concerns the target GABA-A receptor; anion channel. Briefly: Inhibition of GABA-A benzodiazepine receptor. In kind it is protein-complex assay.
`O=C1NC2CCCCCC2N1c1nc2cc(Cl)ccc2o1` (stereo not given) showed an IC50 of 0.14 µM.

The Ki is the dissociation constant of the complex between target and ligand, obtained from inhibition or displacement. A high value points to weaker binding. Broadly, the IC50 is the concentration that gives 50% inhibition.
